We go through seven compounds from article PMC6218799 (BioMed Research International, 2018).

The structures appear in SMILES notation.

As usually defined, the half-life is how long it takes for the measured level to halve. A word on the AUC(0-inf): it is total exposure, with the tail of the curve extrapolated. Low readings indicate low exposure, high ones high exposure. For orientation: AUC(0-t) means the area under the concentration-time curve up to a stated or last time point. A higher AUC(0-t) goes with more exposure. Usually Cmax stands for the peak of the concentration-time curve.

In data set [1] the test system is CYP2C9. On the set-up: method as in ref 44 = [44]; 44 Zhang Y. D. Liu X. Q. Guo Y. L. Effects of 20 active ingredients of traditional Chinese herbs on CYP2C9 activities in rat liver microsomes Journal of Third Military Medical University 2013 35 24 26. The following applies: rat liver microsomes in vitro; cited from earlier work. In general terms: Liver microsomes are a subcellular fraction often used to study metabolism.

The subject of data set [2] is CYP1A2. Also noted: method as in ref 43 = [43]; 43 Du Y. Zhu R.-H. Su F.-L. Wang F. Liang H.-X. Li H.-D. Effect of oleanolic acid on CYP1A2, CYP2E1 and CYP3A4 activity in healthy subjects Chinese Pharmaceutical Journal 2008 43 4 300 303 2-s2.0-5304. Conditions: healthy volunteers; cited from earlier work.
Data set [3] concerns CYP2E1. Also noted: method as in ref 43 = [43]; 43 Du Y. Zhu R.-H. Su F.-L. Wang F. Liang H.-X. Li H.-D. Effect of oleanolic acid on CYP1A2, CYP2E1 and CYP3A4 activity in healthy subjects Chinese Pharmaceutical Journal 2008 43 4 300 303 2-s2.0-5304. The following applies: healthy volunteers; cited from earlier work.
Data set [4] deals with CYP3A4. The following applies: healthy volunteers; cited from earlier work.
Data set [5] deals with CYP2C19. The following applies: in vivo; cited from earlier work.
The subject of data set [6] is CYP2C19. As to the kind of experiment: Cocktail method in rats: pharmacokinetics of probe drug omeprazole (CYP2C19 activity). Type of data set: in vivo. The following applies: male, Wistar, omeprazole 10 mg/kg iv.
Method: (§1) UltiMate3000 HPLC equipped with diode array detector was used to analyze the compounds.
(§2) Forty-eight male Wistar rats (220 ± 20 g) were randomly divided into two control groups, two Digeda groups, and two positive groups (n=8). […] The other groups were given the mixture of two probe drugs (omeprazole and midazolam were 10 mg/kg and 5 mg/kg) by intravenous injection.
(§3) The samples were immediately centrifuged at 3500 r/min for 10 min, and 200 μL plasma was obtained from each sample.
(§4) The plasma samples were extracted. In a 5 mL centrifuge tube, 100 μL of the IS working solution (0.1 mg/mL) was added to 200 uL of collected plasma sample followed by the addition of 2 mL of dichloromethane. After the tube was vortex-mixed for 5 min, the sample was centrifuged at 3500 r/min for 10 min. 1.2 mL of the organic phase was transferred into the other glass tube and was dried by nitrogen. The residue was redissolved with 200 μL methanol and then injected into the HPLC system for analysis. The concentration of probe drugs in plasma was measured by HPLC.
(§5) Plasma probe drug concentration versus time data for each rat was analyzed by DAS software (version 3.0, Drug Clinical Research Center of Shanghai University of TCM and Shanghai BioGuider Medicinal Technology, Co. Ltd., China). The pharmacokinetic parameters of the Digeda group and control group probe drugs with the t-test were analyzed using SPSS 17.0 statistical software. p < 0.05 was considered statistically significant.
In data set [7] the target is T1, CYP1A2 (Rattus norvegicus, UniProt P04799).
T1 construct: from tissue; host or cells: whole animal, male Wistar rats (in vivo pharmacokinetics)
T1 sequence (P04799 1-513): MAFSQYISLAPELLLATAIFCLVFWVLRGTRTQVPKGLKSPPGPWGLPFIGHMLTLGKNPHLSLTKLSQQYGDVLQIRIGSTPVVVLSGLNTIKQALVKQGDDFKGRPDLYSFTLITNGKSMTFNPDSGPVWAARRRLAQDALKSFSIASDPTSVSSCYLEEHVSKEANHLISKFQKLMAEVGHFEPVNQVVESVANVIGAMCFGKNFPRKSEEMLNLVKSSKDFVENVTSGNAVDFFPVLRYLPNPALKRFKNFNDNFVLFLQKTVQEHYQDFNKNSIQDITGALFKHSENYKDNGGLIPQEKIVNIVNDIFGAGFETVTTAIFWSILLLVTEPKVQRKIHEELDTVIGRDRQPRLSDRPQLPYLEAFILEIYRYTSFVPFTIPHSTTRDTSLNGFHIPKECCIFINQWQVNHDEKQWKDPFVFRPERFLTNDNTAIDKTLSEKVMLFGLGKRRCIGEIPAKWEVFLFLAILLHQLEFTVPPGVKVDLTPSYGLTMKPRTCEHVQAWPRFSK
As to the kind of experiment: Cocktail method in rats: pharmacokinetics of probe drug theophylline (CYP1A2 activity). Conditions: male, Wistar, plasma, iv, 10 mg/kg, theophylline 10 mg/kg iv. It is filed as in vivo.
Method: as §1, §2, §3, §4, §5

In data set [8] the test system is CYP3A4. As to the kind of experiment: Cocktail method in rats: pharmacokinetics of probe drug midazolam (CYP3A4 activity). The following applies: male, Wistar, rat, plasma, iv, 5 mg/kg, midazolam 5 mg/kg iv; for AUC(0-t): AUC0~t; for AUC(0-inf): AUC0~∞; for clearance: Cl.
Method: as §1, §2, §3, §4, §5
Data set [9] deals with CYP2C9. On the set-up: method as in ref 45 = [45]; 45 Han Y. L. Meng X. L. Li D. In Vitro Inhibition of Six Cytochrome P450 Isoforms in Human Liver Microsomes by Qingkailing Injection and Its Two Active Components(Baicalin and Geniposide) Chinese Phar. Conditions: Han's research; cited from earlier work.
For data set [10], the system named is CYP2C19. On the set-up: method as in ref 45 = [45]; 45 Han Y. L. Meng X. L. Li D. In Vitro Inhibition of Six Cytochrome P450 Isoforms in Human Liver Microsomes by Qingkailing Injection and Its Two Active Components(Baicalin and Geniposide) Chinese Phar. The following applies: Han's research; cited from earlier work.
Data set [11] concerns CYP3A4. On the set-up: method as in ref 45 = [45]; 45 Han Y. L. Meng X. L. Li D. In Vitro Inhibition of Six Cytochrome P450 Isoforms in Human Liver Microsomes by Qingkailing Injection and Its Two Active Components(Baicalin and Geniposide) Chinese Phar. Conditions: Han's research; cited from earlier work.
In data set [12] the test system is CYP1A2. On the set-up: method as in ref 45 = [45]; 45 Han Y. L. Meng X. L. Li D. In Vitro Inhibition of Six Cytochrome P450 Isoforms in Human Liver Microsomes by Qingkailing Injection and Its Two Active Components(Baicalin and Geniposide) Chinese Phar. The following applies: Han's research; cited from earlier work.
[13] abbreviates: positive group (phenobarbital 50 mg/kg ip 7 days), rat plasma.
[14] abbreviates: rat, plasma, iv, 10 mg/kg, Digeda group (Digeda-4 decoction 600 mg/kg ig 14 days).
[15] abbreviates: rat, plasma, iv, 10 mg/kg, control group (saline ig 14 days).
Where [16] appears, read: rat, plasma, iv, 10 mg/kg, positive group (phenobarbital 50 mg/kg ip 7 days).
[17] abbreviates: Digeda group (Digeda-4 decoction 600 mg/kg ig 14 days).
Where [18] appears, read: control group (saline ig 14 days).
Setting [19] is: positive group (phenobarbital 50 mg/kg ip 7 days).

For the compound `C=C[C@H]1[C@H](O[C@@H]2O[C@H](CO)[C@@H](O)[C@H](O)[C@H]2O)OC=C2C(=O)OCC[C@]21O` [swertiamarin], in [1], the “effect on CYP2C9 activity” value was “inhibitory effect”.

`CC1(C)CC[C@]2(C(=O)O)CC[C@]3(C)C(=CC[C@@H]4[C@@]5(C)CC[C@H](O)C(C)(C)[C@@H]5CC[C@]43C)[C@@H]2C1` [Oleanolic acid]: the “effect on CYP1A2 activity” value in data set [2] is given as “can inhibit CYP1A2 activity significantly”. Also, the “effect on CYP2E1 activity” value in [3] was “little inhibition”. The “effect on CYP3A4” value in data set [4] was “no effect”.

`COc1cc(C(=O)O[C@H]2[C@@H]3C=CO[C@@H](O[C@@H]4O[C@H](CO)[C@@H](O)[C@H](O)[C@H]4O)[C@@H]3[C@@]3(CO)O[C@@H]23)ccc1O` [picroside II]: the “effect on the activity of CYP2C19” value in data set [5] is recorded as “inhibitory effect”.

In data set [6] (setting [13]), `COc1ccc2[nH]c([S+]([O-])Cc3ncc(C)c(OC)c3C)nc2c1` (stereo not drawn) [Omeprazole, omeprazole] gave a clearance of 10.2 mL/min/kg and a half-life of 7.08 ± 1.2 min. Also, in data set [6] (setting [14]), the AUC(0-inf) is 14200 ± 2610 ng·h/mL, the AUC(0-t) came to 13300 ± 2630 ng·h/mL, the highest level (Cmax) was 38600 ± 6690 ng/mL and the clearance was 4.9 mL/min/kg. The half-life in data set [6] (setting [14]) was 16.9 ± 2.76 min. In data set [6] (setting [15]), this compound had an AUC(0-inf) of 7280 ± 1310 ng·h/mL, an AUC(0-t) of 6920 ± 1390 ng·h/mL, a Cmax of 20900 ± 3710 ng/mL and a clearance of 8 mL/min/kg. The compound further gave a half-life in [6] (setting [15]) of 9.78 ± 1.92 min. In [6] (setting [16]), this compound showed an AUC(0-inf) of 5340 ± 993 ng·h/mL, an AUC(0-t) of 4980 ± 845 ng·h/mL and a peak concentration (Cmax) of 16900 ± 2630 ng/mL.

On to `Cn1c(=O)c2[nH]cnc2n(C)c1=O` [Theophylline, theophylline], for which, in data set [7] (setting [17]), the area under the curve AUC(0-inf) is 569000 ± 142000 ng·h/mL, the AUC(0-t) is 299000 ± 67000 ng·h/mL, the peak level (Cmax) was 30700 ± 5450 ng/mL and the clearance was 0.333 mL/min/kg. In [7] (setting [17]), this compound had a half-life of 835 ± 160 min. In data set [7] (setting [18]), this compound gave a total exposure AUC(0-inf) of 326000 ± 76900 ng·h/mL, an AUC(0-t) of 206000 ± 37100 ng·h/mL, a Cmax of 31800 ± 5610 ng/mL and a clearance of 0.55 mL/min/kg. Besides, in [7] (setting [18]), the half-life was 402 ± 97.5 min. In data set [7] (setting [19]), this compound gave a total exposure AUC(0-inf) of 118000 ± 21400 ng·h/mL, an AUC(0-t) of 71900 ± 15400 ng·h/mL, a Cmax of 30000 ± 5180 ng/mL and a clearance of 1.02 mL/min/kg. In data set [7] (setting [19]), this compound had a half-life of 148 ± 21.5 min.

Consider `Cc1ncc2n1-c1ccc(Cl)cc1C(c1ccccc1F)=NC2` [Midazolam, midazolam], for which the AUC(0-t) was determined as 1170 ± 209 ng·h/mL in data set [8] (setting [17]), 881 ± 151 ng·h/mL in [8] (setting [18]) and 653 ± 95 ng·h/mL in [8] (setting [19]). Moreover, the AUC(0-inf) in [8] (setting [17]) is 1360 ± 309 ng·h/mL; in [8] (setting [18]) it was 928 ± 157 ng·h/mL; in [8] (setting [19]), 711 ± 125 ng·h/mL. In addition, the results for the clearance in data set [8] (setting [17]), in data set [8] (setting [18]) and in [8] (setting [19]) were 69.7 mL/min/kg, 104 mL/min/kg and 115 mL/min/kg, respectively. Moreover, the figures for the Cmax in [8] (setting [17]), in data set [8] (setting [18]) and in data set [8] (setting [19]) were 2680 ± 509 ng/mL, 2900 ± 491 ng/mL and 2560 ± 507 ng/mL, respectively. Moreover, the half-life in [8] (T1/2, Digeda group (Digeda-4 decoction 600 mg/kg ig 14 days)) is 11.9 ± 1.92 min; in [8] (T1/2, control group (saline ig 14 days)), 8.64 ± 1.8 min; in data set [8] (T1/2, positive group (phenobarbital 50 mg/kg ip 7 days)) it was 6.3 ± 0.96 min.

With `COC(=O)C1=CO[C@@H](O[C@@H]2O[C@H](CO)[C@@H](O)[C@H](O)[C@H]2O)[C@@H]2C(CO)=CC[C@H]12` [geniposide], the “inhibitory effect on CYP2C9” value in data set [9] is listed as “no inhibitory effect”. In addition, the “inhibitory effect on CYP2C19” value in [10] is “no inhibitory effect”. In addition, in data set [11], the “inhibitory effect on CYP3A4” value is reported as “no inhibitory effect”. The “inhibitory effect on CYP1A2” value in [12] is recorded as “no inhibitory effect”.
